Assay results taken from ChEMBL document CHEMBL5634112, “Synthesis and biological evaluation of fluoroquinolones containing a pyridoxine derivatives moiety” (Eur J Med Chem, 2023).
Converted amounts (≈) assume the structure as drawn.

Experiments:
[1] = tested on: Bacillus subtilis; assay: Antibacterial activity against Bacillus subtilis 168 assessed as reduction in microbial growth incubated for 24 hrs by broth microdilution method; type: functional
[2] = tested on: Pseudomonas aeruginosa; assay: Antibacterial activity against Pseudomonas aeruginosa ATCC 27853 assessed as reduction in microbial growth incubated for 24 hrs by broth microdilution method; type: functional
[3] = tested on: Salmonella typhimurium; assay: Antibacterial activity against Salmonella typhimurium TA100 assessed as reduction in microbial growth incubated for 24 hrs by broth microdilution method; type: functional, Salmonella enterica subsp. enterica serovar Typhimurium; conditions: Salmonella enterica
[4] = Cytotoxicity against human CHL assessed as reduction in cell viability incubated for 72 hrs by MTT assay; type: toxicity, cell-based; conditions: CHL cells
[5] = Cytotoxicity against human HSF assessed as reduction in cell viability incubated for 72 hrs by MTT assay; type: toxicity, cell-based; conditions: HSF cells
[6] = Cytotoxicity against human MSC assessed as reduction in cell viability incubated for 72 hrs by MTT assay; type: toxicity, cell-based; conditions: MSC cells
[7] = tested on: Staphylococcus aureus; assay: In vivo antibacterial activity against Staphylococcus aureus N-10 infected in Po dosed SHK mouse model of sepsis assessed as survival measured after 14 days; type: functional; conditions: N-10, 336 h, time 14 day
[8] = tested on: Staphylococcus aureus; assay: Antibacterial activity against methicillin sensitive Staphylococcus aureus ATCC 29213 assessed as reduction in microbial growth incubated for 24 hrs by broth microdilution method; type: functional
[9] = tested on: Escherichia coli; assay: Antibacterial activity against Escherichia coli ATCC 25922 assessed as reduction in microbial growth incubated for 24 hrs by broth microdilution method; type: functional
[10] = target: Topoisomerase IV (Staphylococcus aureus, UniProt P0C1S7+P0C1U9); assay: Inhibition of Staphylococcus aureus topoisomerase-IV assessed as reduction in decatenation using kinetoplast DNA as substrate incubated for 30 mins by ethidium bromide staining based agarose gel electrophoresis method; type: protein-complex assay
[11] = tested on: Micrococcus luteus; assay: Antibacterial activity against clinical isolate Micrococcus luteus assessed as reduction in microbial growth incubated for 24 hrs by broth microdilution method; type: functional
[12] = tested on: Staphylococcus aureus; assay: Antibacterial activity against clinical isolate Staphylococcus aureus 4721 assessed as reduction in microbial growth incubated for 24 hrs by broth microdilution method; type: functional
[13] = tested on: Staphylococcus epidermidis; assay: Antibacterial activity against clinical isolate Staphylococcus epidermidis assessed as reduction in microbial growth incubated for 24 hrs by broth microdilution method; type: functional
[14] = tested on: Staphylococcus auricularis; assay: Antibacterial activity against clinical isolate Staphylococcus auricularis NKC 7 assessed as reduction in microbial growth incubated for 24 hrs by broth microdilution method; type: functional
[15] = tested on: Staphylococcus haemolyticus; assay: Antibacterial activity against clinical isolate Staphylococcus haemolyticus NKC 31/2 assessed as reduction in microbial growth incubated for 24 hrs by broth microdilution method; type: functional
[16] = tested on: Staphylococcus epidermidis; assay: Antibacterial activity against clinical isolate Staphylococcus epidermidis NKC 37/1 assessed as reduction in microbial growth incubated for 24 hrs by broth microdilution method; type: functional
[17] = tested on: Staphylococcus aureus; assay: Antibacterial activity against clinical isolate Staphylococcus aureus 1812 assessed as reduction in microbial growth incubated for 24 hrs by broth microdilution method; type: functional
[18] = tested on: Staphylococcus aureus; assay: Antibacterial activity against clinical isolate methicillin resistant Staphylococcus aureus 4771 assessed as reduction in microbial growth incubated for 24 hrs by broth microdilution method; type: functional
[19] = tested on: Staphylococcus haemolyticus; assay: Antibacterial activity against clinical isolate Staphylococcus haemolyticus 1464 assessed as reduction in microbial growth incubated for 24 hrs by broth microdilution method; type: functional
[20] = tested on: Enterococcus faecalis; assay: Antibacterial activity against clinical isolate Enterococcus faecalis 1465 assessed as reduction in microbial growth incubated for 24 hrs by broth microdilution method; type: functional
[21] = tested on: Escherichia coli; assay: Antibacterial activity against clinical isolate Escherichia coli NKC 1 assessed as reduction in microbial growth incubated for 24 hrs by broth microdilution method; type: functional
[22] = tested on: Pseudomonas aeruginosa; assay: Antibacterial activity against clinical isolate Pseudomonas aeruginosa NKC 17 assessed as reduction in microbial growth incubated for 24 hrs by broth microdilution method; type: functional
[23] = tested on: Cedecea davisae; assay: Antibacterial activity against clinical isolate Cedecea davisae 1813 assessed as reduction in microbial growth incubated for 24 hrs by broth microdilution method; type: functional
[24] = tested on: Klebsiella pneumoniae; assay: Antibacterial activity against clinical isolate Klebsiella pneumoniae 1678 assessed as reduction in microbial growth incubated for 24 hrs by broth microdilution method; type: functional
[25] = tested on: Klebsiella aerogenes; assay: Antibacterial activity against clinical isolate Enterobacter aerogenes NKC 8 assessed as reduction in microbial growth incubated for 24 hrs by broth microdilution method; type: functional

Structure (SMILES) | MIC [1] | MIC [2] | MIC [3] | CC50 at 72 h [4] | CC50 at 72 h [5] | CC50 at 72 h [6] | MIC [8] | MIC [9] | MIC [11] | MIC [12] | MIC [13] | MIC [14] | MIC [15] | MIC [16] | MIC [17] | MIC [18] | MIC [19] | MIC [20] | MIC [21] | MIC [22] | other results
O=C(O)c1cn(C2CC2)c2cc(N3CCNCC3)c(F)cc2c1=O [CIPROFLOXACIN] | 0.5 µg/mL | 1 µg/mL | 1 µg/mL | 29.3 µg/mL (≈ 88.5 µM) | 52.8 µg/mL (≈ 159 µM) | 41.6 µg/mL (≈ 126 µM) |  |  |  |  |  |  |  |  |  |  |  |  |  |  | ED50 [7]: 11.2 mg/kg
COc1c(N2C[C@@H]3CCCN[C@@H]3C2)c(F)cc2c(=O)c(C(=O)O)cn(C3CC3)c12 [MOXIFLOXACIN] | 2 µg/mL | 4 µg/mL | 1 µg/mL | 35 µg/mL (≈ 87.2 µM) | 36.5 µg/mL (≈ 90.8 µM) | 39.4 µg/mL (≈ 98.2 µM) | 0.5 µg/mL | 1 µg/mL |  |  |  |  |  |  |  |  |  |  |  |  | IC50 [10]: 29.9 µM
COc1c(N2C[C@@H]3CCCN(Cc4cnc(C)c5c4COCO5)[C@@H]3C2)c(F)cc2c(=O)c(C(=O)O)cn(C3CC3)c12.Cl | 2 µg/mL | 64 µg/mL | 2 µg/mL | 2.34 µg/mL | 5.8 µg/mL | 9.62 µg/mL | 2 µg/mL | 2 µg/mL | 8 µg/mL | 0.03 µg/mL | 16 µg/mL | 0.03 µg/mL | 1 µg/mL | 0.03 µg/mL | 0.06 µg/mL | 0.03 µg/mL | 0.03 µg/mL | 1 µg/mL | 4 µg/mL | > 64 µg/mL | MIC [23]: 0.03 µg/mL; MIC [24]: > 64 µg/mL; MIC [25]: > 64 µg/mL
Cc1ncc(CN2CCN(c3cc4c(cc3F)c(=O)c(C(=O)O)cn4C3CC3)CC2)c(C)c1O.Cl | 0.5 µg/mL | 32 µg/mL | 1 µg/mL | 14.2 µg/mL | 27.6 µg/mL | 25.1 µg/mL | 0.5 µg/mL | 1 µg/mL | 0.5 µg/mL | 0.5 µg/mL | 0.5 µg/mL | 0.06 µg/mL | 16 µg/mL | 0.5 µg/mL | 1 µg/mL | 0.5 µg/mL | 0.5 µg/mL | 16 µg/mL | 0.13 µg/mL | 16 µg/mL | MIC [23]: 0.5 µg/mL; MIC [24]: 16 µg/mL; MIC [25]: 1 µg/mL
Cc1ncc(CN2CCN(c3cc4c(cc3F)c(=O)c(C(=O)O)cn4C3CC3)CC2)c2c1OCOC2.Cl | 2 µg/mL | 32 µg/mL | 0.5 µg/mL | 14.9 µg/mL | 40.3 µg/mL | 69.5 µg/mL | 1 µg/mL | 8 µg/mL | 16 µg/mL | 0.13 µg/mL | 0.5 µg/mL | 0.03 µg/mL | 8 µg/mL | 0.25 µg/mL | 0.25 µg/mL | 2 µg/mL | 0.13 µg/mL | 8 µg/mL | 2 µg/mL | 32 µg/mL | MIC [23]: 0.03 µg/mL; MIC [24]: 16 µg/mL; MIC [25]: 16 µg/mL
COc1c(N2C[C@@H]3CCCN(Cc4cnc(C)c5c4COC(C)(C)O5)[C@@H]3C2)c(F)cc2c(=O)c(C(=O)O)cn(C3CC3)c12 | 2 µg/mL | > 64 µg/mL | 4 µg/mL | 2.85 µg/mL (≈ 4.81 µM) | 3.44 µg/mL (≈ 5.8 µM) | 3.84 µg/mL (≈ 6.48 µM) | 2 µg/mL | > 64 µg/mL | 4 µg/mL | 0.5 µg/mL | 2 µg/mL | 0.03 µg/mL | 32 µg/mL | 1 µg/mL | 1 µg/mL | 4 µg/mL | 0.5 µg/mL | 32 µg/mL | 4 µg/mL | > 64 µg/mL | MIC [23]: 0.5 µg/mL; MIC [24]: 32 µg/mL; MIC [25]: 64 µg/mL
COc1c(N2C[C@@H]3CCCN(Cc4cnc(C)c(O)c4CO)[C@@H]3C2)c(F)cc2c(=O)c(C(=O)O)cn(C3CC3)c12.Cl | 2 µg/mL | > 64 µg/mL | 4 µg/mL | 18.6 µg/mL | 56.7 µg/mL | 48.4 µg/mL | 2 µg/mL | > 64 µg/mL | 4 µg/mL | 0.13 µg/mL | 2 µg/mL | 0.03 µg/mL | 8 µg/mL | 0.06 µg/mL | 0.25 µg/mL | 0.13 µg/mL | 0.13 µg/mL | 1 µg/mL | 4 µg/mL | 64 µg/mL | MIC [23]: 0.13 µg/mL; MIC [24]: > 64 µg/mL; MIC [25]: 8 µg/mL
COc1c(N2C[C@@H]3CCCN(Cc4c(CO)nc(C)c(O)c4CO)[C@@H]3C2)c(F)cc2c(=O)c(C(=O)O)cn(C3CC3)c12.Cl | 2 µg/mL | > 64 µg/mL | 2 µg/mL | 17.6 µg/mL | 35.2 µg/mL | 20.6 µg/mL | 2 µg/mL | 2 µg/mL | 2 µg/mL | 0.25 µg/mL | 2 µg/mL | 0.06 µg/mL | 8 µg/mL | 0.25 µg/mL | 0.5 µg/mL | 8 µg/mL | 0.25 µg/mL | 4 µg/mL | 4 µg/mL | 32 µg/mL | MIC [23]: 0.5 µg/mL; MIC [24]: 64 µg/mL; MIC [25]: 8 µg/mL
COc1c(N2C[C@@H]3CCCN(Cc4nc(C)c5c(c4CO)COC(C)(C)O5)[C@@H]3C2)c(F)cc2c(=O)c(C(=O)O)cn(C3CC3)c12 | 2 µg/mL | > 64 µg/mL | 2 µg/mL | 6.41 µg/mL (≈ 10.3 µM) | 11.3 µg/mL (≈ 18.1 µM) | 7.26 µg/mL (≈ 11.7 µM) | 2 µg/mL | > 64 µg/mL | 2 µg/mL | 1 µg/mL | 4 µg/mL | 0.03 µg/mL | 32 µg/mL | 2 µg/mL | 2 µg/mL | 1 µg/mL | 1 µg/mL | 16 µg/mL | 8 µg/mL | > 64 µg/mL | MIC [23]: 0.5 µg/mL; MIC [24]: 64 µg/mL; MIC [25]: 16 µg/mL
